Results reported in the supplement of paper PMC12463676, “Small-molecule dissolution of stress granules by redox modulation benefits ALS models” (Nature Chemical Biology, 2025).

Experiments:
lipoamide = compound: NC(=O)CCCCC1CCSS1 [lipoamide]; assay: thermal stability z-score vs DMSO; higher = more thermally stabilized by treatment; conditions: HeLa, lipoamide concentration 100 µM
Method: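 Cellular thermal proteome profiling in HeLa cells. Cells were treated with 100 µM lipoamide for 1 h, with or without 1 mM arsenate for a further 1 h, then heated to ten temperatures (37-66.3 °C), and soluble protein was quantified by TMT mass spectrometry relative to 0.1% DMSO controls. The thermal stability score (sum of log2 fold changes minus the abundance score) was transformed to a z-score; mean of n = 3 experiments.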

potassium arsenate = compound: O=[As]([O-])(O)O.[K+] [potassium arsenate]; assay: as above; conditions: HeLa; arsenate concentration 1 mM
Method: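 Cellular thermal proteome profiling in HeLa cells treated with 1 mM arsenate for 1 h (DMSO pretreatment), heated to ten temperatures (37-66.3 °C). Soluble protein was quantified by TMT mass spectrometry relative to DMSO controls; the thermal stability score was transformed to a z-score; mean of n = 3 experiments.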

[1] = arsenate co-treatment: 1 mM arsenate 1 h
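Also: each temperature applied for 3 min, abundance score taken as mean log2 fold change at the two lowest temperatures, z-score obtained by mean subtraction and division by SD.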

Chain of UniProt O14757 (O14757 whole entry): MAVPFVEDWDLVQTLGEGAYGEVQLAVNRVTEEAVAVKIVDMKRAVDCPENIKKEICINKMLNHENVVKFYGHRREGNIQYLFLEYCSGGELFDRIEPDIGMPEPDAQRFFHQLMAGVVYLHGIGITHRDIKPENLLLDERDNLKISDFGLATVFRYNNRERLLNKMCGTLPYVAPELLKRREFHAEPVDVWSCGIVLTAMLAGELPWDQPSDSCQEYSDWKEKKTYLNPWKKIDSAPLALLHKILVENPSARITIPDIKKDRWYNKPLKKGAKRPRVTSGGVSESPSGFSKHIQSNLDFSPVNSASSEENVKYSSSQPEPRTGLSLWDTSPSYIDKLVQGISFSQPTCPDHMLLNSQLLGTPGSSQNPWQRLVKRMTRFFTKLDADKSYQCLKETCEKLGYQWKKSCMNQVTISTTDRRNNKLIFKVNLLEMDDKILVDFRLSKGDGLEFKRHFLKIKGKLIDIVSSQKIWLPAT
Chain of UniProt Q9H444 (Q9H444 whole entry): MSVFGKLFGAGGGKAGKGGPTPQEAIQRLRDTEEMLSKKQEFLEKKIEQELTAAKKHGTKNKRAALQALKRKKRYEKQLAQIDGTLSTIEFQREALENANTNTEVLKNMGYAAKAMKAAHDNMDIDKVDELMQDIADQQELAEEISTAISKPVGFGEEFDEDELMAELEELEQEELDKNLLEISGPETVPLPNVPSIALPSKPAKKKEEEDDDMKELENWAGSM
Chain of UniProt Q8TEP8 (Q8TEP8 whole entry): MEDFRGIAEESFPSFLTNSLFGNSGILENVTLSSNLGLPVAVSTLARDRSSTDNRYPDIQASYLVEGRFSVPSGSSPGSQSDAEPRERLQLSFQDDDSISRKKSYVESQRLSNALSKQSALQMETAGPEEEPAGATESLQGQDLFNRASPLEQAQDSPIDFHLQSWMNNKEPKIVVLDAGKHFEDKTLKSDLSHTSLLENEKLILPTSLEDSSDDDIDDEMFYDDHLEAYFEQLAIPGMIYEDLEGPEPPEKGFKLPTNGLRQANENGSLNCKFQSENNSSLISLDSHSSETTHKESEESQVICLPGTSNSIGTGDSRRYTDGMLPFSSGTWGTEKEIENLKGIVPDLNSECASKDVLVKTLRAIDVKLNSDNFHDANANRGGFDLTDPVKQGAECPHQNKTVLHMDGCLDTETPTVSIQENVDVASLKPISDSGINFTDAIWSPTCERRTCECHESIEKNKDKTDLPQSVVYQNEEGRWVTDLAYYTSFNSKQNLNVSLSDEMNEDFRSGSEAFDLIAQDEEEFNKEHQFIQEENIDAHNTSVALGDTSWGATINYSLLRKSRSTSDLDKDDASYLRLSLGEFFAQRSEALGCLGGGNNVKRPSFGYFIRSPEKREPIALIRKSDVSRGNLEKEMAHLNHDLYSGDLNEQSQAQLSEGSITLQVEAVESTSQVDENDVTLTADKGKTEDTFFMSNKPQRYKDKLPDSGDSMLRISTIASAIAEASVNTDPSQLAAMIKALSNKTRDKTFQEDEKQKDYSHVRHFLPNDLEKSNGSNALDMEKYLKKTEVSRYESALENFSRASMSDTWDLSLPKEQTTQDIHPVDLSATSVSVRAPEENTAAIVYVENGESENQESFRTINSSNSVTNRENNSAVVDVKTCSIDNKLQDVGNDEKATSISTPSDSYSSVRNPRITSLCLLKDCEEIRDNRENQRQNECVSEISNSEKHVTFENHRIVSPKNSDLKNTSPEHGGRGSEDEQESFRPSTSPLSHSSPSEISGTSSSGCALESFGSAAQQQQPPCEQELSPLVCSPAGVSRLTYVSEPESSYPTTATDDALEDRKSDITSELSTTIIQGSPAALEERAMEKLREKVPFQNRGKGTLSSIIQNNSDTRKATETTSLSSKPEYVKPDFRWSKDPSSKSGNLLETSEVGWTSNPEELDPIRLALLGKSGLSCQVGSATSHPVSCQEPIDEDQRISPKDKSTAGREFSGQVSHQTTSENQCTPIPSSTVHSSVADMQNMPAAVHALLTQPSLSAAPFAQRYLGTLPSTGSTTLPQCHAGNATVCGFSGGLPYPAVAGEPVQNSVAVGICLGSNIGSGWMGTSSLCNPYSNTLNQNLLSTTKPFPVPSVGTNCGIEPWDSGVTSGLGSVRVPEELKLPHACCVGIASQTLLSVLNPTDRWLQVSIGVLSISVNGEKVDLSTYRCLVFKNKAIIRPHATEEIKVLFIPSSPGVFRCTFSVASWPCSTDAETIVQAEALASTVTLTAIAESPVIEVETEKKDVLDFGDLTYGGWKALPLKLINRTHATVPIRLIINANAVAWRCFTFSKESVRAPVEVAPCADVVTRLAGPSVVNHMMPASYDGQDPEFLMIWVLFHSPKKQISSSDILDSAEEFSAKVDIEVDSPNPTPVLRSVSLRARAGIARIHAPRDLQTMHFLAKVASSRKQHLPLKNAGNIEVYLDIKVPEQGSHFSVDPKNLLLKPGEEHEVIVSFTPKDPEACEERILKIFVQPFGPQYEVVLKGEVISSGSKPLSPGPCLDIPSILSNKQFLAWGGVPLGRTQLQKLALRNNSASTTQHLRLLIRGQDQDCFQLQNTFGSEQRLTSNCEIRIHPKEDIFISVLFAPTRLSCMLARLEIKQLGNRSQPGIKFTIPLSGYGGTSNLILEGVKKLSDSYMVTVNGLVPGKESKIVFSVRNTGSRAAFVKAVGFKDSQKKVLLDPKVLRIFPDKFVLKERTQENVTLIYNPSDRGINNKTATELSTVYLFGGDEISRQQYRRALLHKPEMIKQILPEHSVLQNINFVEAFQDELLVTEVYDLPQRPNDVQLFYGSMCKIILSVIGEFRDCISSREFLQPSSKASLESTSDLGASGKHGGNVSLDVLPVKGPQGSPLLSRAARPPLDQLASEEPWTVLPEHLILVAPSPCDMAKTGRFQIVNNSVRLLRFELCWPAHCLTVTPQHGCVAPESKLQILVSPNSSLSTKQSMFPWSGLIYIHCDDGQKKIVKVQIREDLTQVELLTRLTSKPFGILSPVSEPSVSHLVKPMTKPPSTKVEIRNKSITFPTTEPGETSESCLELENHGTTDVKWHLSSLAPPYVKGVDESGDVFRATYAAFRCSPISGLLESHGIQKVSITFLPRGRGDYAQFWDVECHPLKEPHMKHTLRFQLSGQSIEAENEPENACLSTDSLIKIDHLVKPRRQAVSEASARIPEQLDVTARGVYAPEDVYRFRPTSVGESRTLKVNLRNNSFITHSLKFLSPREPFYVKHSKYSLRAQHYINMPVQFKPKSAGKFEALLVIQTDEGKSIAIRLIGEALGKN
Chain of UniProt Q9Y6A4 (Q9Y6A4 whole entry): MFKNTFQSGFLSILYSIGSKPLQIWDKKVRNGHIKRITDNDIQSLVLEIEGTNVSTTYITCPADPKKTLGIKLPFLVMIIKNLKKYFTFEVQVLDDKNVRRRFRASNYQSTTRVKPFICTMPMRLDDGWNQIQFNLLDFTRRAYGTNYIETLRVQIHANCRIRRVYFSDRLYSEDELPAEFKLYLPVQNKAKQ
Chain of UniProt Q9Y4F5 (Q9Y4F5 whole entry): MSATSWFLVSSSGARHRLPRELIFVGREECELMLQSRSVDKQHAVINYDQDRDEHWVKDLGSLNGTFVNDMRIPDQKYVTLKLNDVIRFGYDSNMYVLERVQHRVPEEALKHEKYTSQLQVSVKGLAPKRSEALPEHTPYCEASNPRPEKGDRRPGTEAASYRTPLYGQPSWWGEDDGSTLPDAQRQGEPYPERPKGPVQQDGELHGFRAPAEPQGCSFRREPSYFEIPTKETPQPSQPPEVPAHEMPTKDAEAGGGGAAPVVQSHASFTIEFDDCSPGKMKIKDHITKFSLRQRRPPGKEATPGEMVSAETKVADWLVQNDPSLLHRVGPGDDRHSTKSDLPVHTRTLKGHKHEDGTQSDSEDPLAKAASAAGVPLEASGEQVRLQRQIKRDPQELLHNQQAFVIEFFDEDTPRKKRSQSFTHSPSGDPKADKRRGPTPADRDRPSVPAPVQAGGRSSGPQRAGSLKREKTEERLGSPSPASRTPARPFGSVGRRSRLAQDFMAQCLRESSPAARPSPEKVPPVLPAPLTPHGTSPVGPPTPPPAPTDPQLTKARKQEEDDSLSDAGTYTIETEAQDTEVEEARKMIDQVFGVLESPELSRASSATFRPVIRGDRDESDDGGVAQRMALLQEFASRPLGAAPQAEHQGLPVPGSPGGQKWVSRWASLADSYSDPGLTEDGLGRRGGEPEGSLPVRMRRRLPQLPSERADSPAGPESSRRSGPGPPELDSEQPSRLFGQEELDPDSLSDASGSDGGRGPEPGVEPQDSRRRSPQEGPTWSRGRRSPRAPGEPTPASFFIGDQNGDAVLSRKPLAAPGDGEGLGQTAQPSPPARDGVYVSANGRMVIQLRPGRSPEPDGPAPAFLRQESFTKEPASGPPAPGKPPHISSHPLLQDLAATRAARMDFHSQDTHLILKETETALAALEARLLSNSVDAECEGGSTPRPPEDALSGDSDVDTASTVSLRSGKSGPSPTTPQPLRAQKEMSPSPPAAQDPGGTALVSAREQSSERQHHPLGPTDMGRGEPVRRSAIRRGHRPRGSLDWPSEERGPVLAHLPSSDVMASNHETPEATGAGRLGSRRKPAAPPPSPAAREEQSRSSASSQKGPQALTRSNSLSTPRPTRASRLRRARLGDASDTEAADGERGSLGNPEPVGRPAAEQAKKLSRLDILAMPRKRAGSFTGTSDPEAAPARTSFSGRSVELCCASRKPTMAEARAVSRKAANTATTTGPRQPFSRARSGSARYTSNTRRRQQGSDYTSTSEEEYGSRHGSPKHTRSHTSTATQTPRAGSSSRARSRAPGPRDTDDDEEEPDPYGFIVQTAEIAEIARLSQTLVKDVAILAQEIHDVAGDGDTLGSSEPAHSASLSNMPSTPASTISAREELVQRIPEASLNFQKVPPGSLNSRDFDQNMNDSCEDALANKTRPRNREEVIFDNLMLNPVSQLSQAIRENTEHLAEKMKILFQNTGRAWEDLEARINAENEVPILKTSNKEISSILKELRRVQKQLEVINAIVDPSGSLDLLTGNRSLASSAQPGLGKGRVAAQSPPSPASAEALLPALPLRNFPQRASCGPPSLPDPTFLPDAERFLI

| Target | thermal stability z-score (lipoamide; [1]) | thermal stability z-score (lipoamide; arsenate co-treatment: none) | thermal stability z-score (potassium arsenate) |
| --- | --- | --- | --- |
| CENPV (UniProt Q7Z7K6) | 0.172 | 0.192 | -0.0535 |
| CEP41 (UniProt Q9BYV8) | -0.0855 | -0.44 | -0.106 |
| CEP44 (UniProt Q9C0F1) | 0.18 | 0.0577 | 0.0867 |
| CEP55 (UniProt Q53EZ4) | -0.129 | -0.0226 | -0.0317 |
| CEP76 (UniProt Q8TAP6) | -0.336 | 0.197 | -1.36 |
| CEP78 (UniProt Q5JTW2) | -0.104 | -0.0338 | -0.165 |
| CEP83 (UniProt Q9Y592) | 0.829 | 1.19 | -0.498 |
| CEP85 (UniProt Q6P2H3) | -0.00805 | 0.112 | -0.118 |
| CEP97 (UniProt Q8IW35) | -0.477 | 0.495 | -0.411 |
| CEP131 (UniProt Q9UPN4) | -0.287 | -0.195 | 0.215 |
| CEP152 (UniProt O94986) | -0.185 | -0.184 | 0.269 |
| CEP170 (UniProt Q5SW79) | -0.0596 | -0.496 | 1.21 |
| CEP170B (UniProt Q9Y4F5) | -0.0863 | -0.0862 | -0.201 |
| CEP192 (UniProt Q8TEP8) | -0.251 | -0.467 | 0.0297 |
| CEP250 (UniProt Q9BV73) | 0.0869 | 0.182 | 0.0828 |
| CEP290 (UniProt O15078) | 0.613 | 0.238 | 0.0798 |
| CEP350 (UniProt Q5VT06) | -0.154 | -0.182 | -0.0541 |
| CEPT1 (UniProt Q9Y6K0) | 0.685 | 0.4 | 0.959 |
| CERCAM (UniProt Q5T4B2) | -0.0616 | -0.543 | -0.44 |
| CERS2 (UniProt Q96G23) | -0.901 | -1.12 | -0.575 |
| CETN2 (UniProt P41208) | 0.767 | 0.569 | 0.798 |
| CETN3 (UniProt O15182) | 1.25 | 1.49 | 1.71 |
| CFAP20 (UniProt Q9Y6A4) | 0.686 | -0.433 | 1.07 |
| CFAP36 (UniProt Q96G28) | 0.177 | 0.267 | 0.177 |

| Target | thermal stability z-score (lipoamide; [1]) | thermal stability z-score (lipoamide; arsenate co-treatment: none) | thermal stability z-score (potassium arsenate) |
| --- | --- | --- | --- |
| CFAP97 (UniProt Q9P2B7) | -1 | -0.518 | -0.864 |
| CFDP1 (UniProt Q9UEE9) | 0.254 | 0.185 | -0.21 |
| CFL1 (UniProt P23528) | 0.501 | 0.449 | -0.362 |
| CFL2 (UniProt Q9Y281) | 0.497 | 0.000804 | -0.466 |
| CGGBP1 (UniProt Q9UFW8) | -0.266 | -0.574 | -0.0749 |
| CHAC2 (UniProt Q8WUX2) | -0.0361 | 0.0338 | 0.455 |
| CHAF1A (UniProt Q13111) | 0.0368 | 0.138 | -0.0415 |
| CHAF1B (UniProt Q13112) | 1.3 | 1.08 | 1.29 |
| CHAMP1 (UniProt Q96JM3) | -0.202 | -0.497 | -0.567 |
| CHCHD1 (UniProt Q96BP2) | 0.43 | 0.138 | -0.0935 |
| CHCHD2 (UniProt Q9Y6H1) | 1.56 | 1.34 | 0.592 |
| CHCHD3 (UniProt Q9NX63) | 0.334 | 0.581 | 0.417 |
| CHCHD4 (UniProt Q8N4Q1) | 0.0185 | 0.497 | -0.236 |
| CHCHD6 (UniProt Q9BRQ6) | 0.209 | 0.536 | -0.66 |
| CHD1 (UniProt O14646) | -0.0735 | 0.209 | -0.504 |
| CHD1L (UniProt Q86WJ1) | -0.114 | -0.0149 | -0.109 |
| CHD3 (UniProt Q12873) | 0.00382 | -0.131 | -0.306 |
| CHD4 (UniProt Q14839) | 0.305 | 0.561 | -0.759 |
| CHD6 (UniProt Q8TD26) | -8.33e-05 | -0.00133 | -0.0483 |
| CHD8 (UniProt Q9HCK8) | -0.13 | -0.00227 | 0.147 |
| CHD9 (UniProt Q3L8U1) | -0.0359 | -0.0662 | 0.384 |
| CHEK1 (UniProt O14757) | 0.0611 | -0.137 | -0.526 |
| CHEK2 (UniProt O96017) | -0.0379 | -0.222 | -0.161 |
| CHERP (UniProt Q8IWX8) | 0.00336 | 0.0908 | -0.107 |

| Target | thermal stability z-score (lipoamide; [1]) | thermal stability z-score (lipoamide; arsenate co-treatment: none) | thermal stability z-score (potassium arsenate) |
| --- | --- | --- | --- |
| CHID1 (UniProt Q9BWS9) | -3.11 | -1.7 | 1.18 |
| CHKA (UniProt P35790) | 0.498 | 0.357 | -1.4 |
| CHM (UniProt P24386) | 0.191 | 0.152 | -0.22 |
| CHML (UniProt P26374) | 0.57 | 0.276 | -0.161 |
| CHMP1A (UniProt Q9HD42) | 0.125 | 0.254 | 0.38 |
| CHMP1B (UniProt Q7LBR1) | -0.234 | 0.171 | 0.0259 |
| CHMP2A (UniProt O43633) | -0.041 | 0.185 | 0.392 |
| CHMP2B (UniProt Q9UQN3) | 0.562 | 0.348 | 0.573 |
| CHMP3 (UniProt Q9Y3E7) | 0.271 | 0.481 | 0.291 |
| CHMP4B (UniProt Q9H444) | 0.0919 | 0.359 | -0.176 |
| CHMP4C (UniProt Q96CF2) | -0.0236 | -0.694 | -0.789 |
| CHMP5 (UniProt Q9NZZ3) | 0.869 | 0.597 | -0.246 |
| CHMP6 (UniProt Q96FZ7) | 0.476 | 0.273 | 0.217 |
| CHMP7 (UniProt Q8WUX9) | -0.517 | -0.865 | -0.0641 |
| CHORDC1 (UniProt Q9UHD1) | 0.149 | 0.043 | -0.23 |
| CHP1 (UniProt Q99653) | 0.377 | 0.436 | 1.28 |
| CHPF2 (UniProt Q9P2E5) | -0.824 | -0.516 | -0.154 |
| CHPF (UniProt Q8IZ52) | -1.5 | -0.387 | -0.257 |
| CHRAC1 (UniProt Q9NRG0) | -0.123 | 0.285 | -0.28 |
| CHST14 (UniProt Q8NCH0) | -0.943 | -0.167 | -0.359 |
| CHSY1 (UniProt Q86X52) | -0.212 | -0.333 | -0.171 |
| CHTF8 (UniProt P0CG13) | 1.3 | 0.577 | 0.975 |
| CHTF18 (UniProt Q8WVB6) | -0.117 | -0.0426 | -0.0702 |
